Measured values as given in ChEMBL document CHEMBL3588832, “The biology and synthesis of α-hydroxytropolones” (Medchemcomm, 2014).
Converted amounts (≈) assume the structure as drawn. Blank lines part the entries; values can stand above or below the molecule they belong to.

Assays:
B16 [1] = experiment: Antitumor activity against mouse B16 cells implanted in mouse assessed as mouse survival at 1 mg/kg/day (reference value: 16 days); format: functional
Poria = experiment: Antifungal activity against Poria monticola; format: functional
Coniophora puteana = experiment: Antifungal activity against Coniophora puteana; format: functional
[2] = Antifungal activity against Stereum sanguinolentum; format: functional
[3] = Antifungal activity against Polyporus versicolor; format: functional
[4] = Antifungal activity against Phellinus weirii; format: functional
Micrococcus luteus = experiment: Antibacterial activity against Micrococcus luteus; format: functional
Escherichia coli [5] = experiment: Antibacterial activity against Escherichia coli NIHJ; format: functional
[6] = Inhibition of phosphotidylcholine-preferring phospholipase C (unknown origin) at pH 7.3; set-up: species or system Homo sapiens
Pseudomonas aeruginosa = experiment: Antibacterial activity against Pseudomonas aeruginosa; format: functional
Plasmodium falciparum [7] = experiment: Antimalarial activity against chloroquine-resistant Plasmodium falciparum K1; format: functional, organism-based
MRC5 = experiment: Cytotoxicity against human MRC5 cells; format: functional, cell-based
[8] = Inhibition of phosphotidylcholine-preferring phospholipase C (unknown origin) at pH 9.5; set-up: species or system Homo sapiens
Escherichia coli [9] = experiment: Inhibition of Escherichia coli W677/JR76.2 2'-O-adenylyltransferase at 550 uM using aminoglycoside and [14C]ATP incubated for 15 mins by liquid scintillation counting based radiochemical assay
[10] = target: T1, Dopamine beta-hydroxylase (Homo sapiens, UniProt P09172); experiment: Inhibition of dopamine beta-oxygenase (unknown origin)
T1 sequence (P09172 whole entry): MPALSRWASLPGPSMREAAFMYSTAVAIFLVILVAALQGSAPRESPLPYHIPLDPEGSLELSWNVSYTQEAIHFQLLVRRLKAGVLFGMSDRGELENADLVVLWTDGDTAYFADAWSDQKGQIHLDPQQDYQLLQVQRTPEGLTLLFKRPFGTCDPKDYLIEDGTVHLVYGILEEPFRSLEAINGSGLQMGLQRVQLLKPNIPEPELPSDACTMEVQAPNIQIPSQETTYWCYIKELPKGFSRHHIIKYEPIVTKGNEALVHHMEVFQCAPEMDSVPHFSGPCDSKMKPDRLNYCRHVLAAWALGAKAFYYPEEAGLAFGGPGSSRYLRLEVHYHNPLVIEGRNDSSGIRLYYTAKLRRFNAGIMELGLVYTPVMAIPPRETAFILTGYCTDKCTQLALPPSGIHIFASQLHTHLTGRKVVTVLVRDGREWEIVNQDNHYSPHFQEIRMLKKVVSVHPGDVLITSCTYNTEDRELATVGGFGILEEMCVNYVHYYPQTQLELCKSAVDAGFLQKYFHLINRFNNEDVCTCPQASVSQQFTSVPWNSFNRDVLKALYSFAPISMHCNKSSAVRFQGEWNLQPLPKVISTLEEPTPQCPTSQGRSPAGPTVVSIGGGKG

Aspergillus fumigatus = experiment: Antifungal activity against Aspergillus fumigatus IAM2350; format: functional
Staphylococcus aureus = experiment: Antibacterial activity against Staphylococcus aureus; format: functional
[11] = Inhibition of alkaline phosphatase (unknown origin); set-up: species or system Homo sapiens
Plasmodium falciparum [12] = experiment: Antimalarial activity against Plasmodium falciparum FCR-3/Gambia; format: functional, organism-based
[13] = Inhibition of inositol monophosphatase (unknown origin); set-up: species or system Homo sapiens
Escherichia coli [14] = experiment: Inhibition of Escherichia coli W677/JR76.2 2'-O-adenylyltransferase at 55 uM using aminoglycoside and [14C]ATP incubated for 15 mins by liquid scintillation counting based radiochemical assay
Klebsiella pneumoniae = experiment: Antibacterial activity against Klebsiella pneumoniae; format: functional
Escherichia coli [15] = experiment: Inhibition of Escherichia coli W677/JR76.2 2'-O-adenylyltransferase at 5.5 uM using aminoglycoside and [14C]ATP incubated for 15 mins by liquid scintillation counting based radiochemical assay
B16 [16] = experiment: Cytotoxicity against mouse B16 cells; format: functional, cell-based
[17] = Inhibition of HIV2 reverse transcriptase RNase H; set-up: species or system Human immunodeficiency virus 2
[18] = Inhibition of HIV reverse transcriptase RNase H; set-up: species or system Human immunodeficiency virus
[19] = Inhibition of hepatitis B virus genotype D RNaseH
Escherichia coli [20] = experiment: Inhibition of Escherichia coli W677/JR76.2 2'-O-adenylyltransferase at 730 uM using aminoglycoside and [14C]ATP incubated for 15 mins by liquid scintillation counting based radiochemical assay
[21] = Toxicity in mouse assessed as induction of mortality after 72 hrs; format: organism-based; conditions: in vivo
[22] = Inhibition of hepatitis B virus genotype H RNaseH
[23] = Inhibition of HIV1 reverse transcriptase RNase H; set-up: species or system Human immunodeficiency virus 1
Hepatitis B virus [24] = experiment: Antiviral activity against HBV assessed as inhibition of viral replication in cell based assay; format: functional, organism-based
[25] = Inhibition of Escherichia coli ribonuclease H
[26] = Toxicity in mouse assessed as induction of mortality after 48 hrs; format: organism-based; conditions: in vivo
Escherichia coli [27] = experiment: Inhibition of Escherichia coli W677/JR76.2 2'-O-adenylyltransferase at 7.3 uM using aminoglycoside and [14C]ATP incubated for 15 mins by liquid scintillation counting based radiochemical assay
[28] = Inhibition of XMRV RNaseH; set-up: species or system Xenotropic MuLV-related virus
[29] = Inhibition of human ribonuclease H
[30] = Inhibition of HIV reverse transcriptase polymerase; set-up: species or system Human immunodeficiency virus
[31] = Inhibition of HIV integrase 3' processing activity; set-up: species or system Human immunodeficiency virus
[32] = Inhibition of HIV integrase strand transfer activity; set-up: species or system Human immunodeficiency virus
B16 [33] = experiment: Inhibition of RNA synthesis in mouse B16 cells; format: functional, cell-based
B16 [34] = experiment: Antitumor activity against mouse B16 cells implanted in mouse assessed as mouse survival at 2.5 mg/kg/day (reference value: 16 days); format: functional
[35] = tested on: Human immunodeficiency virus 1; experiment: Antiviral activity against HIV1 assessed as inhibition of viral replication in cell based assay; format: functional, organism-based
B16 [36] = experiment: Inhibition of protein synthesis in mouse B16 cells; format: functional, cell-based
Escherichia coli [37] = experiment: Inhibition of Escherichia coli W677/JR76.2 2'-O-adenylyltransferase at 6.5 uM using aminoglycoside and [14C]ATP incubated for 15 mins by liquid scintillation counting based radiochemical assay
B16 [38] = experiment: Antitumor activity against mouse B16 cells implanted in mouse assessed as mouse survival at 1.3 mg/kg/day (reference value: 16 days); format: functional
B16 [39] = experiment: Inhibition of DNA synthesis in mouse B16 cells; format: functional, cell-based
Escherichia coli [40] = experiment: Inhibition of Escherichia coli W677/JR76.2 2'-O-adenylyltransferase at 650 uM using aminoglycoside and [14C]ATP incubated for 15 mins by liquid scintillation counting based radiochemical assay
Plasmodium falciparum [41] = experiment: Antimalarial activity against Plasmodium falciparum infected in mouse; format: functional
Hepatitis B virus [42] = experiment: Antiviral activity against HBV assessed as inhibition of viral replication at 10 uM in cell based assay; format: functional

Structure (SMILES): CO[C@@]12[C@H](COC(N)=O)C3=C(C(=O)C(C)=C(N)C3=O)N1C[C@@H]1N[C@@H]12 [MITOMYCIN]
MST (B16 [1]): 27 days

MIC (Poria): 10 µM (≈ 1.64 µg/mL) | MIC (Coniophora puteana): 10 µM (≈ 1.64 µg/mL) | MIC [2]: 50 µM (≈ 8.21 µg/mL) | MIC [3]: 70 µM (≈ 11.5 µg/mL) | MIC [4]: 50 µM (≈ 8.21 µg/mL)
Structure (SMILES): CC(C)c1ccc(O)c(=O)cc1 [GAMMA-THUJAPLICIN]

Structure (SMILES): O=c1c(O)ccccc1O
MIC (Micrococcus luteus): 90 µM (≈ 12.4 µg/mL) | MIC (Escherichia coli [5]): 45 µM (≈ 6.22 µg/mL) | Ki [6]: 16 µM | MIC (Pseudomonas aeruginosa): 700 µM (≈ 96.7 µg/mL) | IC50 (Plasmodium falciparum [7]): 6.4 µM | IC50 (MRC5): 1.7 µM | Ki [8]: 23 µM | inhibition (Escherichia coli [9]): 100% | IC50 [10]: 2 µM | MIC (Aspergillus fumigatus): 730 µM (≈ 101 µg/mL) | MIC (Staphylococcus aureus): 90 µM (≈ 12.4 µg/mL) | IC50 [11]: 15 µM | IC50 (Plasmodium falciparum [12]): 8.7 µM | IC50 [13]: 75 µM | inhibition (Escherichia coli [14]): 78% | MIC (Klebsiella pneumoniae): 360 µM (≈ 49.7 µg/mL) | inhibition (Escherichia coli [15]): 8% | IC50 (B16 [16]): 2.2 µM

Structure (SMILES): CC(C)c1ccc(O)c(=O)c(O)c1 [BETA-THUJAPLICINOL]
IC50 [17]: 0.8 µM | MIC (Poria): 10 µM (≈ 1.8 µg/mL) | IC50 [18]: 0.2 µM | IC50 [19]: 5.9 µM | inhibition (Escherichia coli [20]): 100% | LD50 at 72 h [21]: 155 mg/kg | IC50 [22]: 2.3 µM | IC50 [23]: 0.2 µM | MIC (Coniophora puteana): 10 µM (≈ 1.8 µg/mL) | EC50 (Hepatitis B virus [24]): 5 µM | IC50 [25]: 50 µM | LD50 at 48 h [26]: 175 mg/kg | MIC [2]: 330 µM (≈ 59.5 µg/mL) | MIC [3]: 800 µM (≈ 144 µg/mL) | inhibition (Escherichia coli [27]): 31% | IC50 [28]: 1.4 µM | MIC [4]: 100 µM (≈ 18 µg/mL) | IC50 [29]: 5.7 µM

IC50 [18]: 12 µM | IC50 [30]: 0.6 µM | IC50 [31]: 0.6 µM | IC50 [32]: 1.2 µM
Structure (SMILES): O=Cc1ccc(-c2ccc(O)c(=O)c(O)c2O)cc1

IC50 [18]: 900 µM | IC50 [30]: 52 µM | IC50 [31]: 0.15 µM | IC50 [32]: 1.7 µM
Structure (SMILES): CC(=O)Nc1ccc(-c2cc(-c3ccc(NC(C)=O)cc3)c(O)c(=O)c(O)c2O)cc1

IC50 [18]: 1.3 µM | IC50 [30]: 2.3 µM | IC50 [31]: 0.7 µM | IC50 [32]: 0.8 µM
Structure (SMILES): O=c1c(O)c(O)ccc(-c2cccc([N+](=O)[O-])c2)c1O

Structure (SMILES): O=c1cccccc1O [TROPOLONE]
IC50 [17]: > 100 µM | IC50 (Plasmodium falciparum [7]): > 100 µM | IC50 [23]: > 100 µM | IC50 [25]: > 100 µM | IC50 [10]: 2 µM | IC50 [11]: > 1000 µM | IC50 [13]: > 1000 µM | IC50 [29]: 3 µM

Structure (SMILES): O=c1c(O)cccc(O)c1O
IC50 (B16 [33]): 90 µM | MST (B16 [34]): 12 days | IC50 [18]: 20 µM | IC50 [35]: 0.3 µM | IC50 (B16 [36]): 70 µM | IC50 [30]: 3.2 µM | IC50 [10]: 3 µM | IC50 [31]: 40 µM | IC50 [11]: 60 µM | inhibition (Escherichia coli [37]): 2% | IC50 [13]: 8 µM | MST (B16 [38]): 29 days | IC50 (B16 [16]): 0.26 µM | IC50 (B16 [39]): 60 µM | IC50 [32]: 11 µM | inhibition (Escherichia coli [40]): 54%

Structure (SMILES): C[C@H]1[C@H](OC(=O)CCC(=O)O)O[C@@H]2O[C@@]3(C)CC[C@H]4[C@H](C)CC[C@@H]1[C@@]24OO3 [ARTESUNATE]
IC50 (Plasmodium falciparum [7]): 0.01 µM | IC50 (MRC5): 36 µM | ED50 (Plasmodium falciparum [41]): 1.7 mg/kg | IC50 (Plasmodium falciparum [12]): 0.0025 µM

IC50 [18]: > 1000 µM | IC50 [30]: 30 µM | IC50 [31]: > 1000 µM
Structure (SMILES): CC(=O)Oc1cccc(OC(C)=O)c(=O)c1OC(C)=O

Structure (SMILES): O=c1ccc(O)ccc1O
IC50 (B16 [16]): 13 µM

Structure (SMILES): O=c1c(O)ccc(O)cc1O
IC50 (B16 [16]): 2.5 µM

Structure (SMILES): COc1cc(C(=O)O)cc(O)c(OC)c1=O
IC50 (Plasmodium falciparum [7]): 3.7 µM

IC50 [13]: 4 µM
Structure (SMILES): N#Cc1ccc(-c2ccc(O)c(=O)c(O)c2O)cc1

IC50 [19]: 2.5 µM | IC50 [28]: 0.41 µM
Structure (SMILES): NCc1ccc(-c2ccc(Cc3cc(=O)n(O)c4ncccc34)cc2)cc1
inhibition at 10 µM (Hepatitis B virus [42]): 93%

IC50 [17]: 33 µM | IC50 [23]: 50 µM | IC50 [25]: > 100 µM | IC50 [29]: 12 µM
Structure (SMILES): CC(C)c1ccccc(=O)c1O [ALPHA-THUJAPLICIN]

Structure (SMILES): O=C(O)c1cc(O)c(O)c(=O)c(O)c1
IC50 (Plasmodium falciparum [7]): 0.05 µM | IC50 (MRC5): 360 µM | ED50 (Plasmodium falciparum [41]): < 2 mg/kg | IC50 (Plasmodium falciparum [12]): 0.05 µM | IC50 [13]: 10 µM

Ki [6]: 388 µM | Ki [8]: 53 µM
Structure (SMILES): O=C1C=CCN(O)C(=O)N1O
